Assay results published in patent US20170355705A1 (GlaxoSmithKline Intellectual Property (No.2) Limited, priority 2014, published 2017).

Molecular target: T1, SIRT1 (Homo sapiens, UniProt Q96EB6)
T1 sequence (Q96EB6 1-747): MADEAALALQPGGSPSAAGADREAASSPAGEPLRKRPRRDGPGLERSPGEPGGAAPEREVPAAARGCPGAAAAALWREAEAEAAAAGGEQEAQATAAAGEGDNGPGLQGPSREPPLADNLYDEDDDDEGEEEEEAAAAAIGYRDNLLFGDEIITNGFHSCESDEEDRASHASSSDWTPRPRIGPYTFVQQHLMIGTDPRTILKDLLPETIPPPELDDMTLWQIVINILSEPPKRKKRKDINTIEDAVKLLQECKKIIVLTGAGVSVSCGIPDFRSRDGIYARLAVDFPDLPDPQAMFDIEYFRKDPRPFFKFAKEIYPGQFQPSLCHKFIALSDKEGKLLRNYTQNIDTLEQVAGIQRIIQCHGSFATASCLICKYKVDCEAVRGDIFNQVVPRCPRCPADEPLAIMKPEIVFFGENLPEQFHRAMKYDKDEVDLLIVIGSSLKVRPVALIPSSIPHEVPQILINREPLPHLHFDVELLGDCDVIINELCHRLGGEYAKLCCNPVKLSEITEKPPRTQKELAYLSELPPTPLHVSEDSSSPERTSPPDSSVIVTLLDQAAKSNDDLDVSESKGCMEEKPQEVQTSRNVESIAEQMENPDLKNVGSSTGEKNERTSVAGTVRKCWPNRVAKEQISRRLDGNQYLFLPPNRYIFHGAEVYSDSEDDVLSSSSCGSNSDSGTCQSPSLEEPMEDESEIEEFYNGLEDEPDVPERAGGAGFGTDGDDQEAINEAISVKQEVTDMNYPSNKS
Assay: Trp mass spectrometry assay of SIRT1 activity (EC1.5, percent maximum activation)
Format: biochemical
Details: Trp mass spectrometry assay; 0.5 μM peptide substrate, 120 μM βNAD+, 10 nM SIRT1, 25 minutes at 25° C.
Outline: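 Sirtuin deacetylation was run with purified N-His SIRT1 and the 5TMR Trp peptide across a compound titration, stopped after 25 min by acidification, and analysed by MS for OAADPR. Endpoint lay within the linear range.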

| TRP MAX RESP (percent maximum fold activation) | TRP Activity (EC1.5, concentration of test compound that results in 150% activation of SIRT1) | Structure (SMILES) |
| --- | --- | --- |
| A (Fold activation ≧150%) | – | Cc1cc(-c2ccc3c(n2)N(C(=O)Nc2cc(N4C[C@@H](C)O[C@@H](C)C4)ccn2)[C@H]2CCN3C2)ccn1 [Example 356] |
| A (Fold activation ≧150%) | A (EC1.5<1 μM) | Cc1cc(-c2ccc3c(n2)N(C(=O)Nc2cc(N4C[C@@H](C)O[C@@H](C)C4)ccn2)[C@H]2CCN3C2)ccn1 [Example 357, (4S)-N-(4-((2S,6R)-2,6-dimethylmorpholino)pyridin-2-yl)-7-(2-methylpyridin-4-yl)-3,4-dihydro-1,4-methanopyrido[2,3-b][1,4]diazepine-5(2H)-carboxamide] |
| A (Fold activation ≧150%) | – | Cc1cc(-c2ccc3c(n2)N(C(=O)Nc2cc(-c4c(C)nn(C)c4C)ccn2)[C@H]2CCN3C2)ccn1 [Example 365] |
| A (Fold activation ≧150%) | – | Cc1cc(-c2ccc3c(n2)N(C(=O)Nc2cc(N4CCCC4)ccn2)[C@H]2CCN3C2)ccn1 [Example 367] |

The next lines start with the molecule.

| Structure (SMILES) | TRP MAX RESP (percent maximum fold activation) | TRP Activity (EC1.5, concentration of test compound that results in 150% activation of SIRT1) |
| --- | --- | --- |
| Cc1cc(-c2ccc3c(n2)N(C(=O)Nc2nccc(-c4cn(C)nc4C)n2)[C@H]2CCN3C2)ccn1 [Example 358, (4S)-N-(4-(1,3-dimethyl-1H-pyrazol-4-yl)pyrimidin-2-yl)-7-(2-methylpyridin-4-yl)-3,4-dihydro-1,4-methanopyrido[2,3-b][1,4]diazepine-5(2H)-carboxamide] | A (Fold activation ≧150%) | B (EC1.5 1-25 μM) |
| O=C(Nc1ncnc2cccc(F)c12)N1c2nc(-c3cccc(C(F)(F)F)c3)ccc2N2CC[C@H]1C2 [Example 361] | A (Fold activation ≧150%) | – |
| Cc1cc(-c2ccc3c(n2)N(C(=O)Nc2cc(-c4cnn(CC(F)(F)F)c4)ccn2)[C@H]2CCN3C2)ccn1 [Example 366] | A (Fold activation ≧150%) | – |
| O=C(NCCO)N1c2nc(-c3cccc(C(F)(F)F)c3)ccc2N2CC[C@H]1C2 [Example 378, (4S)-N-(2-hydroxyethyl)-7-(3-(trifluoromethyl)phenyl)-3,4-dihydro-1,4-methanopyrido[2,3-b][1,4]diazepine-5(2H)-carboxamide] | A (Fold activation ≧150%) | B (EC1.5 1-25 μM) |
| NC(=O)N1c2nc(-c3cccc(C(F)(F)F)c3)ccc2N2CC[C@H]1C2 [Example 379, (4S)-7-(3-(trifluoromethyl)phenyl)-3,4-dihydro-1,4-methanopyrido[2,3-b][1,4]diazepine-5(2H)-carboxamide] | B (Fold Activation <150%) | C (EC1.5>25 μM) |
